Test system in one assay: not listed separately
Nature of the assay: Concentration required to inhibit cell proliferation by 50% in P388/CPT-45 tumor cell line; camptothecin resistant. To be noted: Mus musculus, P388CPT45. The assay is classed as functional.
With `COc1cc2c(C(=O)NCCN(C)C)cc3c4cc5c(cc4ncc3c2cc1OC)OCO5`, the IC50 (in general, the concentration needed to halve the response being measured) amounted to 0.26 µM.

The compound `CCOC(=O)c1cc2c3cc4c(cc3ncc2c2cc(OC)c(OC)cc12)OCO4` registered a half-maximal inhibitory concentration (IC50) of 3.25 µM.

Regarding `COc1cc2c(C(=O)NCCCN(C)C)cc3c4cc5c(cc4ncc3c2cc1OC)OCO5`, the half-inhibitory concentration (IC50) was determined as 0.34 µM.

In turn, `COc1cc2c(C(=O)OCCCN(C)C)cc3c4cc5c(cc4ncc3c2cc1OC)OCO5` showed an IC50 of 0.14 µM.

In turn, `COc1cc2c3cnc4cc5c(cc4c3c(=O)n(CCN(C)C)c2cc1OC)OCO5` came in with an IC50 of 0.2 µM.

`COc1cc2c(C(=O)OCCN(C)C)cc3c4cc5c(cc4ncc3c2cc1OC)OCO5` showed a concentration for half-maximal inhibition (IC50) of 0.02 µM.

A further assay relates to P388. Put plainly: Concentration required to inhibit cell proliferation in P388 tumor cell line. The assay is classed as functional, cell-based. To be noted: Mus musculus.
As to `COc1cc2c(C(=O)NCCN(C)C)cc3c4cc5c(cc4ncc3c2cc1OC)OCO5`, it took 0.002 µM to reach half-maximal inhibition (IC50). This counts as single-digit nanomolar.

For `CCOC(=O)c1cc2c3cc4c(cc3ncc2c2cc(OC)c(OC)cc12)OCO4`, inhibition was half-maximal at 0.04 µM (IC50).

For `COc1cc2c(C(=O)NCCCN(C)C)cc3c4cc5c(cc4ncc3c2cc1OC)OCO5`, it took 0.03 µM to reach half-maximal inhibition (IC50).

Compound `COc1cc2c(C(=O)OCCCN(C)C)cc3c4cc5c(cc4ncc3c2cc1OC)OCO5` had a concentration for half-maximal inhibition (IC50) of 0.11 µM.

The compound `COc1cc2c3cnc4cc5c(cc4c3c(=O)n(CCN(C)C)c2cc1OC)OCO5` displayed an IC50 of 0.002 µM.

`COc1cc2c(C(=O)OCCN(C)C)cc3c4cc5c(cc4ncc3c2cc1OC)OCO5`: the IC50 came out at 0.01 µM.

The test system of the next assay is KB 3-1. Nature of the assay: Concentration required to inhibit cell proliferation by 50% in KB3-1 tumor cell line. The assay is classed as functional, cell-based. To be noted: Homo sapiens.
Compound `COc1cc2c(C(=O)NCCN(C)C)cc3c4cc5c(cc4ncc3c2cc1OC)OCO5` displayed an IC50 of 0.001 µM.

Compound `CCOC(=O)c1cc2c3cc4c(cc3ncc2c2cc(OC)c(OC)cc12)OCO4` had an IC50 of 0.04 µM. This IC50 is about 40-fold higher than that of the compound before.

`COc1cc2c(C(=O)NCCCN(C)C)cc3c4cc5c(cc4ncc3c2cc1OC)OCO5` registered a concentration for half-maximal inhibition (IC50) of 0.04 µM.

`COc1cc2c(C(=O)OCCCN(C)C)cc3c4cc5c(cc4ncc3c2cc1OC)OCO5` showed a concentration for half-maximal inhibition (IC50) of 0.5 µM.

`COc1cc2c3cnc4cc5c(cc4c3c(=O)n(CCN(C)C)c2cc1OC)OCO5` showed a concentration for half-maximal inhibition (IC50) of 0.002 µM.

Compound `COc1cc2c(C(=O)OCCN(C)C)cc3c4cc5c(cc4ncc3c2cc1OC)OCO5` showed an IC50 of 0.03 µM.

The subject of a further assay is RPMI 8402. Put plainly: Concentration required to inhibit cell proliferation in CPT-K5 tumor cell line; camptothecin resistant. The assay is classed as functional, cell-based. As to conditions: Homo sapiens.
Turning to `COc1cc2c(C(=O)NCCN(C)C)cc3c4cc5c(cc4ncc3c2cc1OC)OCO5`, 1 µM corresponded to half-maximal inhibition (IC50).

In the case of `CCOC(=O)c1cc2c3cc4c(cc3ncc2c2cc(OC)c(OC)cc12)OCO4`, the IC50 was greater than 10 µM.

Take `COc1cc2c(C(=O)NCCCN(C)C)cc3c4cc5c(cc4ncc3c2cc1OC)OCO5`: the 50% inhibitory concentration (IC50) stood at 2.05 µM. This counts as single-digit micromolar.

As to `COc1cc2c(C(=O)OCCCN(C)C)cc3c4cc5c(cc4ncc3c2cc1OC)OCO5`, the IC50 came out at 1.5 µM. The IC50 values of the last two compounds are within 1.5-fold of each other.

`COc1cc2c3cnc4cc5c(cc4c3c(=O)n(CCN(C)C)c2cc1OC)OCO5` displayed an IC50 of 0.21 µM.

Consider `COc1cc2c(C(=O)OCCN(C)C)cc3c4cc5c(cc4ncc3c2cc1OC)OCO5`, for which half-maximal inhibition (IC50) required 0.73 µM.

For a further assay, the system named is RPMI 8402. Nature of the assay: Concentration required to inhibit cell proliferation in […] tumor cell line. The assay is classed as functional, cell-based. As to conditions: Homo sapiens.
The compound `COc1cc2c(C(=O)NCCN(C)C)cc3c4cc5c(cc4ncc3c2cc1OC)OCO5` showed a half-maximal inhibitory concentration (IC50) of 0.003 µM.

With `CCOC(=O)c1cc2c3cc4c(cc3ncc2c2cc(OC)c(OC)cc12)OCO4`, the IC50 was determined as 0.08 µM.

Take `COc1cc2c(C(=O)NCCCN(C)C)cc3c4cc5c(cc4ncc3c2cc1OC)OCO5`: it took 0.05 µM to reach half-maximal inhibition (IC50). Compared with the last compound, the IC50 is about 1.6-fold lower.

For the compound `COc1cc2c(C(=O)OCCCN(C)C)cc3c4cc5c(cc4ncc3c2cc1OC)OCO5`, half-maximal inhibition (IC50) was put at 0.22 µM.

Consider `COc1cc2c3cnc4cc5c(cc4c3c(=O)n(CCN(C)C)c2cc1OC)OCO5`, for which the 50% inhibitory concentration (IC50) came out at 0.0007 µM.

`COc1cc2c(C(=O)OCCN(C)C)cc3c4cc5c(cc4ncc3c2cc1OC)OCO5` had an IC50 of 0.03 µM.

A further assay deals with KB 3-1. Put plainly: Concentration required to inhibit cell proliferation by 50% in KBH5.0 tumor cell line; overexpress BCRP. Type of assay: functional, cell-based. To be noted: Homo sapiens.
Consider `COc1cc2c(C(=O)NCCN(C)C)cc3c4cc5c(cc4ncc3c2cc1OC)OCO5`, for which 0.03 µM corresponded to half-maximal inhibition (IC50).

Regarding `CCOC(=O)c1cc2c3cc4c(cc3ncc2c2cc(OC)c(OC)cc12)OCO4`, the IC50 came to 0.11 µM. This IC50 is about 3.7-fold higher than that of the compound before.

`COc1cc2c(C(=O)NCCCN(C)C)cc3c4cc5c(cc4ncc3c2cc1OC)OCO5` came in with a half-inhibitory concentration (IC50) of 0.5 µM.

As for `COc1cc2c(C(=O)OCCCN(C)C)cc3c4cc5c(cc4ncc3c2cc1OC)OCO5`, the 50% inhibitory concentration (IC50) worked out at 0.6 µM.

With `COc1cc2c3cnc4cc5c(cc4c3c(=O)n(CCN(C)C)c2cc1OC)OCO5`, the IC50 was found to be 0.004 µM.

As for `COc1cc2c(C(=O)OCCN(C)C)cc3c4cc5c(cc4ncc3c2cc1OC)OCO5`, the midpoint of inhibition, the IC50, lay at 0.07 µM.

The target of the next assay is T1, DNA topoisomerase 1 (Homo sapiens) (UniProt P11387).
T1 sequence (whole entry): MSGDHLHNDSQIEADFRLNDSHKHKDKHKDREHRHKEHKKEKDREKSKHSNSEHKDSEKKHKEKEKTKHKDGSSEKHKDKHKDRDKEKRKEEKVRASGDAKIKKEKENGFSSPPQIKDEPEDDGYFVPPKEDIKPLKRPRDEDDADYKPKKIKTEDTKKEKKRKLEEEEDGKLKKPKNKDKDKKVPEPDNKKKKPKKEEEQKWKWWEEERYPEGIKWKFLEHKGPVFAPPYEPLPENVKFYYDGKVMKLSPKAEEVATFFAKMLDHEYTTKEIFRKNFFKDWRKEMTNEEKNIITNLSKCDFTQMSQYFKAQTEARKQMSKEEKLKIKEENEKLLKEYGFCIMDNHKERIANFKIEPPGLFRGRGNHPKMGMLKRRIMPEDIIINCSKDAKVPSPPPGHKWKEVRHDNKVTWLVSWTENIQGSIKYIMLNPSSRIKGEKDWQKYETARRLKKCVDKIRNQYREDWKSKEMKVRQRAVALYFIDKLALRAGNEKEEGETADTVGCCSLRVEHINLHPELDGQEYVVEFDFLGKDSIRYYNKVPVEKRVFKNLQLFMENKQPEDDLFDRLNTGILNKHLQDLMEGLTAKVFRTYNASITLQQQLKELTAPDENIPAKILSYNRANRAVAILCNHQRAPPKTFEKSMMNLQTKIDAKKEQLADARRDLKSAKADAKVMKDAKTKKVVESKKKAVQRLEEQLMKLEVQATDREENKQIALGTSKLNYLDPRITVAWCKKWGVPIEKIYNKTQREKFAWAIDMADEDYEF
Put plainly: Relative effective concentration to cleave plasmid DNA with human topoisomerase I; compared to camptothecin=1.
Settings: not given
With `COc1cc2c(C(=O)NCCN(C)C)cc3c4cc5c(cc4ncc3c2cc1OC)OCO5`, the REC was 0.5.

Take `CCOC(=O)c1cc2c3cc4c(cc3ncc2c2cc(OC)c(OC)cc12)OCO4`: the REC came out at 12.

Compound `COc1cc2c(C(=O)NCCCN(C)C)cc3c4cc5c(cc4ncc3c2cc1OC)OCO5` yielded an REC of 30.

In turn, `COc1cc2c(C(=O)OCCCN(C)C)cc3c4cc5c(cc4ncc3c2cc1OC)OCO5` gave an REC of 7.

The compound `COc1cc2c3cnc4cc5c(cc4c3c(=O)n(CCN(C)C)c2cc1OC)OCO5` had an REC of 3.

With `COc1cc2c(C(=O)OCCN(C)C)cc3c4cc5c(cc4ncc3c2cc1OC)OCO5`, the REC came out at 5.

The next assay has as its system KB. Put plainly: Concentration required to inhibit cell proliferation by 50% in KBV-1 tumor cell line; overexpress MDR1. The assay is classed as functional, cell-based. As to conditions: Homo sapiens.
As for `COc1cc2c(C(=O)NCCN(C)C)cc3c4cc5c(cc4ncc3c2cc1OC)OCO5`, the IC50 was 0.1 µM.

On to `CCOC(=O)c1cc2c3cc4c(cc3ncc2c2cc(OC)c(OC)cc12)OCO4`, for which half-maximal inhibition (IC50) required 0.34 µM.

Consider `COc1cc2c(C(=O)NCCCN(C)C)cc3c4cc5c(cc4ncc3c2cc1OC)OCO5`, for which the half-inhibitory concentration (IC50) was 4.5 µM.

As for `COc1cc2c(C(=O)OCCCN(C)C)cc3c4cc5c(cc4ncc3c2cc1OC)OCO5`, inhibition was half-maximal at 2 µM (IC50).

On to `COc1cc2c3cnc4cc5c(cc4c3c(=O)n(CCN(C)C)c2cc1OC)OCO5`, for which the IC50 turned out to be 0.004 µM. Against the preceding compound, the IC50 is about 500-fold lower.

Take `COc1cc2c(C(=O)OCCN(C)C)cc3c4cc5c(cc4ncc3c2cc1OC)OCO5`: the half-inhibitory concentration (IC50) is 0.22 µM.

The record behind these values is ChEMBL document CHEMBL1138027, “Dimethoxybenzo[i]phenanthridine-12-carboxylic acid derivatives and 6H-dibenzo[c,h][2,6]naphthyridin-5-ones with potent topoisomerase I-targeting activity and cytotoxicity” (Bioorg Med Chem Lett, 2004).
